Assay results taken from patent US20230058623A1, “NOVEL HETEROARYL-TRIAZOLE COMPOUNDS AS PESTICIDES” (Bayer Aktiengesellschaft, priority 2019, published 2023).

Columns and labels:
Assay type in all cases: in vivo
[1] = test system: larvae of the southern green stink bug (Nezara viridula); assay: Nezara viridula spray test; settings: 96 h, application rate 100 g/ha, after 4 days, barley plants
Summary of the method: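 Barley plants sprayed with the active compound in emulsifier-containing water, then infested with stink bug larvae. Mortality scored in % after 4 days, with 100% meaning all insects killed.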

[2] = test system: Rhipicephalus (Boophilus) microplus larvae (strain Parkhurst, resistant against synthetic pyrethroids); assay: Rhipicephalus (Boophilus) microplus in-vitro contact test, larval cattle tick; settings: after 48 hours, read-out: activity (efficacy: larvae dead or moribund); for pest or weed control at 1 µg/cm2, 100 g/ha: application rate 1 μg/cm^2 (=100 g/ha); for pest or weed control at 5 µg/cm2, 500 g/ha: application rate 5 μg/cm^2 (=500 g/ha)
Summary of the method: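 Acetone solutions were coated onto glass tube walls, giving 5 μg/cm^2 at 900 ppm. Once dry, 20–50 pyrethroid-resistant Parkhurst larvae were added per tube and held 48 h at 27 °C and 85% RH. Efficacy was scored by negative geotaxis as the percentage of dead or moribund larvae.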

[3] = test system: larvae of the banded cucumber beetle (Diabrotica balteata); assay: Diabrotica balteata spray test; settings: 168 h, application rate 100 g/ha (=32 μg/well), after 7 days, wheat seeds, read-out: activity (efficacy: seedlings grown)
Summary of the method: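 Wheat seeds germinated 1 day on agar were sprayed with compound diluted in water with 1000 ppm emulsifier, then infested with 10-20 Diabrotica balteata larvae. Efficacy in % scored after 7 days: 100% = seedlings grown as untreated, uninfected control; 0% = no seedlings grown.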

[4] = test system: adult mosquitoes Aedes aegypti strain MONHEIM; assay: Aedes aegypti test (AEDSAE surface treatment & contact assay); settings: 24 hours after contact, read-out: efficacy (mortality); for mortality at 20 mg/m2: surface concentration 20 mg/m^2, exposure 30 minutes; for mortality at 4 mg/m2: surface concentration 4 mg/m^2, exposure 30 minutes
Summary of the method: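 Compound in acetone (2 mg/ml) with 2000 ppm RME dried onto glazed tile; adults exposed to the treated surface for 30 min. Percent mortality scored 24 h after contact.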

[5] = test system: adult unfed cat fleas (Ctenocephalides felis); assay: Ctenocephalides felis oral test; settings: 48 h, read-out: activity (mortality)
Summary of the method: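 About 20 adult unfed cat fleas fed through parafilm on citrated cattle blood containing compound (from a DMSO concentrate). Blood held at 37° C, fleas at room temperature. Mortality in % scored after 2 days.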

[6] = test system: adult flies Musca domestica strain WHO-N; assay: Musca domestica test (MUSCDO surface treatment & contact assay); settings: 24 hours after contact, read-out: efficacy (mortality); for mortality at 20 mg/m2: surface concentration 20 mg/m^2, exposure 30 minutes; for mortality at 4 mg/m2: surface concentration 4 mg/m^2, exposure 30 minutes
Summary of the method: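 Compound dissolved at 2 mg/ml in acetone with 2000 ppm RME, applied to glazed tile and dried; adult flies exposed on the surface for 30 min. Percent mortality scored 24 h after contact.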

[7] = test system: green peach aphid (Myzus persicae); assay: Myzus persicae spray test; settings: foliar, 120 h, application rate 100 g/ha, after 5 days, Chinese cabbage leaf disks, read-out: activity (mortality)
Summary of the method: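 Chinese cabbage leaf disks infested with all aphid instars were sprayed with compound diluted in water containing emulsifier (1000 ppm). Mortality (%) was scored after 5 days, 100% meaning all aphids killed.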

[8] = test system: adult brown dog ticks (Rhipicephalus sanguineus); assay: Rhipicephalus sanguineus in-vitro contact test, adult brown dog ticks; settings: application rate 5 μg/cm^2 (=500 g/ha), after 48 hours, read-out: activity (efficacy: ticks dead or moribund)
Summary of the method: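 Efficacy (%) reflects the fraction of adult ticks dead or moribund after 48 h of contact with a dried acetone film on tube walls at 5 μg/cm^2 (from 900 ppm). Moribund status was assessed by inability to climb away from heat at 45-50° C.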

Compound	mortality at 100 g/ha [1]	pest or weed control at 1 µg/cm2, 100 g/ha [2]	pest or weed control at 5 µg/cm2, 500 g/ha [2]	pest or weed control at 32 µg/disc, 100 g/ha [3]	mortality at 20 mg/m2 [4]	mortality at 100 ppm [5]	mortality at 20 mg/m2 [6]	mortality at 100 g/ha [7]	pest or weed control at 5 µg/cm2, 500 g/ha [8]	mortality at 4 mg/m2 [4]	mortality at 4 mg/m2 [6]
C[C@@H]1CN(C(=O)c2ccc(-n3ncnc3[C@H](C)NC(=O)c3cc(C(F)(F)F)cc(C(F)(F)F)c3)nc2)C[C@@H](C)O1 [Example I-46]	100%	100%	100%	100%	80 to 100%	100%	80 to 100%	90%	100%	–	–
C[C@@H]1CN(C(=O)c2ccc(-n3ncnc3[C@H](C)NC(=O)c3cc(C(F)(F)F)cc(C(F)(F)F)c3)nc2)C[C@H](C)O1 [Example I-50]	100%	100%	100%	100%	80 to 100%	100%	80 to 100%	90%	100%	80 to 100%	80 to 100%
C[C@H](NC(=O)c1cc(C(F)(F)F)cc(C(F)(F)F)c1)c1ncnn1-c1ccc(C(=O)N2C[C@H](C)O[C@@H](C)C2)cn1 [Example I-94]	100%	100%	100%	100%	80 to 100%	100%	80 to 100%	100%	100%	80 to 100%	80 to 100%
